Consider 2 compounds from paper PMC7110780, “Multimodular fused acetyl–feruloyl esterases from soil and gut Bacteroidetes improve xylanase depolymerization of recalcitrant biomass” (Biotechnology for Biofuels, 2020).

For the test, the target named is T1, BoCE6–CE1 (Bacteroides ovatus, UniProt A0ABU3ING8).
T1 construct: gene RO706_05995
Description: absorbance […] nm. The note with it: […] °C, […] buffer. Type of test: biochemical.

T1 sequence (A0ABU3ING8 20-638): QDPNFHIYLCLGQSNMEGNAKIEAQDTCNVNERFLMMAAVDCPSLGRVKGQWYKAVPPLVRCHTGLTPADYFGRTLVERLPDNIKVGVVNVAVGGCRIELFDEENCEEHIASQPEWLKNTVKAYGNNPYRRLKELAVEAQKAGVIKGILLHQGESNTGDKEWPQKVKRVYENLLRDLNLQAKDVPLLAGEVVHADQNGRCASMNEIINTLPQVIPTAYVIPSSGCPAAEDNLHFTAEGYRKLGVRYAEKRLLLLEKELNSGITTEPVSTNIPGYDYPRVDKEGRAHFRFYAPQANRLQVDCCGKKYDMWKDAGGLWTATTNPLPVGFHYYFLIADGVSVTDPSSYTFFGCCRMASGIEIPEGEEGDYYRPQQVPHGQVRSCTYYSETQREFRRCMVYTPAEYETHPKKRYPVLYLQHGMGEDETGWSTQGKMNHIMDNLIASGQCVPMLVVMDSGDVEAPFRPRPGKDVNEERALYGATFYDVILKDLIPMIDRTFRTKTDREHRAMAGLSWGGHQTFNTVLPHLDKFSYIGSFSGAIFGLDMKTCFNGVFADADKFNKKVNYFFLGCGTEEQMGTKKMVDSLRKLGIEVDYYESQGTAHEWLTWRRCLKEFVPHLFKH

For the compound `COC(=O)/C=C/c1ccc(O)c(OC)c1` [MFA], the “absorbance 340 nm” value was “The activity on MFA and MSA was in the same order of magnitude for the full-length”.
For `COC(=O)/C=C/c1cc(OC)c(O)c(OC)c1` [MSA] the value was “The activity on MFA and MSA was in the same order of magnitude for the full-length”.
